Assay: Inhibition of ABCB1 in human K562/A02 cells assessed as potentiation of adriamycin-induced cytotoxicity by measuring compound concentration required for reduction of ADR IC50 after 48 hrs by MTT assay

Row | SMILES | EC50 [nM]
1 | O=C(Nc1ccc(N2CCOCC2)cc1)c1cccnc1NCc1ccncc1 | 329
2 | COc1cc2c(cc1OC)CN(CCc1ccc(NC(=O)c3cccnc3NCc3ccncc3)cc1)CC2 | 120

— BindingDB's records for doi:10.1021/acs.jmedchem.6b01879 (China Pharmaceutical University, 2017)
